Test results from patent publication US8445510B2, “Fused bicyclic kinase inhibitors” (OSI Pharmaceuticals, LLC, priority 2011, dated 2013).

Tests used:
Aurora B = biological target: T1, Aurora B (Homo sapiens, UniProt Q96GD4); assay: Aurora B cell mechanistic assay (HT-29), phospho-Histone H3 (Ser10) ELISA; type: cell-based; details: HT-29 cell line; inhibition of phospho-Histone H3 (Ser10); at least duplicate experiments (italicized if single experiment); read-out: Aurora B mech IC50
T1 construct: HT-29 cells grown in complete growth media
Method in brief: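 HT-29 cells treated 1 h at 37 °C with serially diluted compound, then 100 nM Calyculin A added for 30 min. Lysates assayed by phospho-Histone H3 (Ser10) ELISA at 450 nm; normalized to DMSO (100%) and a reference Aurora B inhibitor (full inhibition); IC50 by four-parameter fit.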

RON = biological target: T2, RON (Homo sapiens, UniProt Q04912); assay: sfRON cell mechanistic assay (HeLa), phosphorylated RON ELISA; type: cell-based; details: HeLa cells transfected with sfRON; inhibition of phosphorylated RON; four hours incubation; at least duplicate experiments; read-out: sfRON mech IC50
T2 sequence (Q04912 913-1400): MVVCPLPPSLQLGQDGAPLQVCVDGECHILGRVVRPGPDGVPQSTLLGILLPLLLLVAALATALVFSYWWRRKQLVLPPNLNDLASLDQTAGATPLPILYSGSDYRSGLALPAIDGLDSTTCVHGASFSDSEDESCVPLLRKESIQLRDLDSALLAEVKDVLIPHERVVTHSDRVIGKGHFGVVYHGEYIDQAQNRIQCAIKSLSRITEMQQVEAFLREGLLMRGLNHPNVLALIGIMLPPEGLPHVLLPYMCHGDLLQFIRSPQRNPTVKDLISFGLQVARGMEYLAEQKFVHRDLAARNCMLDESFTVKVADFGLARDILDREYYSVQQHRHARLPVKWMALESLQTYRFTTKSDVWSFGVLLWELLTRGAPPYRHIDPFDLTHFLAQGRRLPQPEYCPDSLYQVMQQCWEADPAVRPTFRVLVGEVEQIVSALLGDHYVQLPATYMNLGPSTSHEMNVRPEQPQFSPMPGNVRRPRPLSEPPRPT
Method in brief: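 HeLa cells transiently transfected with sfRON plasmid, then exposed 4 h at 37 °C to a 6-point compound series (typically 10 μM to 3 nM, 0.5% DMSO). Phospho-RON (pY1238/1239) in lysates measured by sandwich ELISA with luminescence. IC50 from 4-parameter fit of percent-of-DMSO-control data, at least duplicate runs.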

T1 sequence (Q96GD4 whole entry): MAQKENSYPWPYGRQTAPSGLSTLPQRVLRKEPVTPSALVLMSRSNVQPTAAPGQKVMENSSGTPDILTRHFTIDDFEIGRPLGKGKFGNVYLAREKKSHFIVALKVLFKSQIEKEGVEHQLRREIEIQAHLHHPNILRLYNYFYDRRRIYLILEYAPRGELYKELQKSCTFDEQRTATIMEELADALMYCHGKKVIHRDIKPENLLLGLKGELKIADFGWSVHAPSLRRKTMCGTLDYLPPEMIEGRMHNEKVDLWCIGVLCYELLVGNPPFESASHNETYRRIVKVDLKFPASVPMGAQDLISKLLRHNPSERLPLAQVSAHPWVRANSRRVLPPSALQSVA

| SMILES | IC50 (Aurora B) | IC50 (RON) |
| --- | --- | --- |
| COc1ccc(F)c(Cl)c1[C@@H](C)c1c[nH]c2ncc(-c3cn([C@H]4CC[C@H](C(=O)N(C)C)CC4)nc3C)cc12 [Example 23, trans-4-(4-{3-[(1S)-1-(2-chloro-3-fluoro-6-methoxyphenyl)ethyl]-1H-pyrrolo[2,3-b]pyridin-5-yl}-3-methyl-1H-pyrazol-1-yl)-N,N-dimethylcyclohexanecarboxamide] | 50 to 200 nM | ≤ 200 nM |
| CNC(=O)[C@H]1CC[C@H](n2nc(C)c(-c3cnc4[nH]cc([C@H](C)c5c(OC)ccc(F)c5Cl)c4c3)c2C)CC1 [Example 24, trans-4-(4-{3-[(1S)-1-(2-Chloro-3-fluoro-6-methoxyphenyl)ethyl]-1H-pyrrolo[2,3-b]pyridin-5-yl}-3,5-dimethyl-1H-pyrazol-1-yl)-N-methylcyclohexanecarboxamide] | > 1000 nM | 200 to 1000 nM |
| COc1ccc(F)c(Cl)c1[C@@H](C)c1c[nH]c2ncc(-c3cn([C@H]4CC[C@H](O)CC4)nc3C)cc12 [Example 28, trans-4-(4-{3-[(1S)-1-(2-Chloro-3-fluoro-6-methoxyphenyl)ethyl]-1H-pyrrolo[2,3-b]pyridin-5-yl}-3-methyl-1H-pyrazol-1-yl)cyclohexanol] | 50 to 200 nM | ≤ 200 nM |
